Values quoted from earlier work in patent publication US20070134395A1, “Method of reducing manganese in defatted soy isolate” (priority 2005, published 2007).
Read-outs that look alike come from different tables or passages of the source.

Legend:
[1] = calcium-deficient rat pups
[2] = neonate, excess Mn not metabolized
[3] = neonate, from soy-based infant formula

Compound | greater amount of Mn in the cerebral column tissue and fluids [1] | share of excess Mn stored in the basal ganglia region [2] | Mn absorbed above metabolic need [3] | intestinal absorption of Mn (adults) | intestinal absorption of Mn (neonatal, animal models)
CC(=O)[O-].CC(=O)[O-].[Mg+2] [magnesium acetate] | 900% |  |  |  | 
[Mn+2] [Mn, Manganese] |  | about eight | approximately 1.1 mg | one percent to about two percent | seventy percent to about eighty percent
